Source: ChEMBL document CHEMBL2151039, “Discovery and development of α7 nicotinic acetylcholine receptor modulators” (J Med Chem, 2011)
pIC50, pKi: −log10 of the molar value. Where a SMILES comes first, the peptide text is derived from it. Bridges are numbered along the chain shown (N, C = ends).

Experiments:
Homo sapiens = species: Homo sapiens; test: Selectivity ratio of IC50 for nAChR to IC50 for human alpha7 nAChR
[1] = target: Neuronal acetylcholine receptor subunit alpha-7 (Homo sapiens, UniProt P36544); test: Antagonist activity at human alpha7 nAChR expressed in Xenopus oocyte; format: functional
Neuronal acetylcholine receptor subunit alpha-7 (Homo sapiens, UniProt P36544), sequence (P36544 whole entry): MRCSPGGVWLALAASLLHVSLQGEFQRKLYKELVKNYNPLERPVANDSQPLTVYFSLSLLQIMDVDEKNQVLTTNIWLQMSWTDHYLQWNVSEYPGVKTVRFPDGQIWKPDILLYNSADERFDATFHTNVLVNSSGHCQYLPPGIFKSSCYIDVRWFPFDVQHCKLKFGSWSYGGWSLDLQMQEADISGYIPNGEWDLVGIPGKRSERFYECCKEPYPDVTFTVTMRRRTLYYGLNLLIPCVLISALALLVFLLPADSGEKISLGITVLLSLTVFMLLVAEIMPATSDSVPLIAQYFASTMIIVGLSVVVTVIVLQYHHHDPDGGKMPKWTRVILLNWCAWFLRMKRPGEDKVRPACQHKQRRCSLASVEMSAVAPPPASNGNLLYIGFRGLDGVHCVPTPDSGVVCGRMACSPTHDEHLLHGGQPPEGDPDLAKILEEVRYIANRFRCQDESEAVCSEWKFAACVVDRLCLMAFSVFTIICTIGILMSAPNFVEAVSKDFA

[2] = target: Neuronal acetylcholine receptor subunit alpha-7 (Mus musculus, UniProt P49582); test: Displacement of [125I]alpha-Bungarotoxin from alpha7 nAchR in mouse hippocampal membranes; format: cell membranes, Hippocampus
Neuronal acetylcholine receptor subunit alpha-7 (Mus musculus, UniProt P49582), sequence (P49582 whole entry): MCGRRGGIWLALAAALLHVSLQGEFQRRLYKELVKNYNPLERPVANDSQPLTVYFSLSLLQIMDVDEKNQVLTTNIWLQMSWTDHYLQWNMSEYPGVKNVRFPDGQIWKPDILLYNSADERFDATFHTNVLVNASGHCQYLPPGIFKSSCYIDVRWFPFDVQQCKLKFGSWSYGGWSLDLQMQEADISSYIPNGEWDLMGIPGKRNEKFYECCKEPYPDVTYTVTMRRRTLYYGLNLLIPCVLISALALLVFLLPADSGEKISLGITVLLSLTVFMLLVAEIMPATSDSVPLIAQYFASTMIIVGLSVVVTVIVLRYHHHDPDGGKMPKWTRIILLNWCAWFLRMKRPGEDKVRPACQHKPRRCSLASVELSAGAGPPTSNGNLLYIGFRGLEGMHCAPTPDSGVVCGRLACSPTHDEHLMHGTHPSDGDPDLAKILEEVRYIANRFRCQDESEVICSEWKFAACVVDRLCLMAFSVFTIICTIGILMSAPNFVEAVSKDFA

Question: `CC(C)C[C@@H]1NC(=O)[C@H](CCCNC(=N)N)NC(=O)[C@@H]2CSSC[C@H](NC(=O)[C@H](CCC(=O)O)NC(=O)[C@@H](N)CC(=O)O)C(=O)N[C@@H](CSSC[C@@H](C(=O)N[C@@H](CCCNC(=N)N)C(=O)N[C@@H](CCCNC(=N)N)C(=O)N[C@@H](CCCNC(=N)N)C(=O)O)NC(=O)[C@H](CC(=O)O)NC(=O)[C@H](Cc3cnc[nH]3)NC(=O)[C@@H]3CCCN3C(=O)[C@H](CC(N)=O)NC(=O)[C@H](CC(N)=O)NC1=O)C(=O)N[C@@H](CO)C(=O)N[C@@H](CC(N)=O)C(=O)N1CCC[C@H]1C(=O)N[C@@H](C)C(=O)N2` (H-DECCSNPACRLNNPHDCRRR-OH; disulfide 3-9, 4-17) was tested. Which Ratio IC50 (Homo sapiens) did it give?
Answer: The Ratio IC50 was greater than 800.

Question: What about the pIC50 [1] of the same molecule?
Answer: The pIC50 was 8.96.

Question: And the pKi [2]?
Answer: Its pKi is 8.15.
